Data from patent US20220304985A1, “COMBINATION THERAPY FOR PROLIFERATIVE CONDITIONS” (Avexxin AS, priority 2019, published 2022).

Legend:
MDA-MB-436 cells = experiment: Resazurin viability assay, MDA-MB-436 cells (monotherapy and combination); format: cell-based, human; settings: for IC50: MDA-MB-436, 72 h treatment, n = 3
Description: The MDA-MB-436 cell line was from ATCC. The MDA-MB-436 cell line was established from a pleural effusion of a patient with metastatic breast adenocarcinoma. The cell line is of triple negative breast cancer, however the MDA-MB-436 cell line is classified as mesenchymal stem-like with high enrichment of genes for biological processes such as cell motility (Rho pathway), cellular differentiation and growth pathways (ALK pathway, TGF-β signalling and Wnt/β-catenin pathway). MDA-MB-436 cells were maintained in RPMI-1640 culturing media supplemented with 10% FBS, 0.3 mg/mL L-glutamine and 0.1 mg/mL gentamicin, 10 mcg/mL insulin and incubated in 37° C. humidified atmosphere. Sub-culture using trypsin-EDTA 0.5% every 3-4 days with cell density of 2-3 million cells in a T75 cm2 culturing flask to ensure actively proliferating cells. The MDA-MB-436 cells was seeded in 1×10^4 cells/well. After 24 h of cultivation, when the cells were ˜30-50% confluent, the medium was replaced with serum free growth medium without gentamycin to ensure synchronization of the cells and to increase cell sensitivity to treatment. The MDA-MB-436 cells were starved in starvation media with insulin. The medium was replaced with fresh serum free medium with or without compound 2, NVP-BKM120 (Cayman Chemicals, US). The cells were observed under the microscope to evaluate possible morphology changes and signs of stress before the addition of resazurin according to the manufacturer's instructions (RnD Systems, UK). MDA-MB-436 cells were incubated for 72 h. Resazurin was metabolized for 1-2 h (37° C., 5% CO2) before fluorescence was read at 544 nm excitation and 590 nm emission wavelength (BioTek Synergy HT). The experiments were performed in series of eight wells per treatment and repeated 2-3 times. […] Statistical significance between treatments were determined using Welch's ANOVA with Tamhane's T2 correction for multiple comparisons, p<0.05 was considered statistically significant.

CCRF-CEM cells = experiment: Resazurin viability assay, CCRF-CEM cells (combination, Bliss Independence CI); format: cell-based, human; settings: 0.5 μm of BKM120 as used in combination, FIG. 1, CCRF-CEM
Method: The CCRF-CEM (ATCC CCL-119) cell line is derived from T lymphoblasts from peripheral blood of a child with acute leukaemia. The cells were grown according to the recommendations of the supplier. The culture medium, RPMI-1640, was supplemented with 10 μL/mL glutamine, 2 μL/mL gentamicin and 10% foetal bovine serum (FBS) to make complete growth medium (CGM). The cells were incubated at 37 °C in a humidified atmosphere with 5% CO2. Passaging was conducted every 2 - 4 days to maintain a cell density below 2.5×10^6 cells/mL, and thus ensure a continuous proliferation. Cells were allowed to acclimatise for two weeks after establishment before they were utilised for experimental purposes and discarded after three months. […] Resazurin was metabolized for 1-2 h (37° C., 5% CO2) before fluorescence was read at 544 nm excitation and 590 nm emission wavelength (BioTek Synergy HT). […] Statistical significance between treatments were determined using Welch's ANOVA with Tamhane's T2 correction for multiple comparisons, p<0.05 was considered statistically significant. […] The combination index was calculated using: [formula] • where CI is the combination index, EA represent the effect of drug A given as a monotherapy, EB represent the effect of drug B given as a monotherapy and EAB represent drugs A and B given in combination at the same concentrations as the monotherapies. […]

Nc1cc(C(F)(F)F)c(-c2cc(N3CCOCC3)nc(N3CCOCC3)n2)cn1 [BKM120, buparlisib, reference compound]
viability at 0.4 µM (MDA-MB-436 cells; Homo sapiens, 72 h, BKM120 0.4 μM alone, MDA-MB-436, relative to untreated control set to 100%): 84 ± 7%
viability at 1.1 µM (MDA-MB-436 cells; Homo sapiens, 72 h, BKM120 1.1 μM alone, MDA-MB-436, relative to untreated control set to 100%): 45 ± 10%
IC50 (MDA-MB-436 cells; Homo sapiens): 1.2 µM
expected inhibition (CCRF-CEM cells): 10%

CCCCCCCOc1ccc(OCC(=O)c2nc(C(=O)OC)cs2)cc1 [Compound 2]
viability at 5 µM (MDA-MB-436 cells; Homo sapiens, 72 h, Cmpd 2 5 μM alone, MDA-MB-436, relative to untreated control set to 100%): 92 ± 3%
viability at 6.5 µM (MDA-MB-436 cells; Homo sapiens, 72 h, Cmpd 2 6.5 μM alone, MDA-MB-436, relative to untreated control set to 100%): 82 ± 6%
viability at 7.5 µM (MDA-MB-436 cells; Homo sapiens, 72 h, Cmpd 2 7.5 μM alone, MDA-MB-436, relative to untreated control set to 100%): 76 ± 4%
viability at 10 µM (MDA-MB-436 cells; Homo sapiens, 72 h, Cmpd 2 10 μM alone, MDA-MB-436, relative to untreated control set to 100%): 60 ± 10%
IC50 (MDA-MB-436 cells; Homo sapiens): 10.4 µM
concentration at which viability was reduced significantly compared to the untreated control (MDA-MB-436 cells; MDA-MB-436, 72 h, control set to 100% viability): ≥ 9 µM
